Measurements published in patent US20060008880A1, “Mouse trace amine associated receptors and polypeptides” (priority 2004, published 2006).

These compounds were tested against Mouse TAAR 1 (Mus musculus, UniProt Q923Y8) (assay: cAMP Biotrak EIA functional assay in HEK293 cells stably expressing mTAAR1). Details: not given.
Mouse TAAR 1, sequence (Q923Y8 whole entry): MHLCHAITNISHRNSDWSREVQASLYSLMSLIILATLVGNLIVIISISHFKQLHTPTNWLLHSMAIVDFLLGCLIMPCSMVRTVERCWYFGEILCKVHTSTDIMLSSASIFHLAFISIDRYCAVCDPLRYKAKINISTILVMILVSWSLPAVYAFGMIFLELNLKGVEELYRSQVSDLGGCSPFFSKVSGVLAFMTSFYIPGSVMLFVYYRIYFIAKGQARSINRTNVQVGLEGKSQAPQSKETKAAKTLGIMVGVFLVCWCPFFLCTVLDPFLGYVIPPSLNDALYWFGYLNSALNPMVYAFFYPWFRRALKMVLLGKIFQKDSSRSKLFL
Type: cell-based
From the text: Stable cell lines: For the generation of stably transfected cell lines HEK cells were transfected with the pIRES-NEO2 expression vectors of the respective TAARs by using Lipofectamin 2000 transfection reagent and Optimem 1 reduced serum medium with Glutamax (Invitrogen Cat. # 51985-026) following the recommendations given in the Lipofectamine 2000 datasheet. After 24 hr post transfection cells were trypsinated and transferred into 90 mm tissue culture dishes (Nunc) at dilutions between 1:10-1:300 in culture medium supplemented with 1 mg/ml G418 which was renewed on a daily basis. […] Picking of clones was performed by detaching the entire clone from the culture dish using a 1 ml Gilson pipette, trypsinizing the clone in a 1.5 ml Eppendorf cup using Trypsin/EDTA (Invitrogen Cat. # 25300-062) and plating them into a 48 well dish, from where the cells were subsequently expanded by transferring them to increasing culture surface areas (48 well—12 well—60 mm etc.). Whenever cells were transferred to a new plate they were carefully trypsinized. As soon as single clones were selected, the concentration of G418 in the culture medium was reduced to 500 µg/ml.
NCCc1c[nH]c2ccc(O)cc12 [Serotonin, 5-HT, Serotonin] showed an EC50 greater than 50 µM. NCCc1c[nH]c2ccccc12 [TRY, tryptamine] showed an EC50 of 1.99 µM. With NCCc1ccccc1 [β-PEA, β-phenylethylamine] the EC50 was 0.66 µM.

Same assay, conditions: maximal response as percentage of the maximal cAMP levels induced by p-TYR; HEK293 cells stably expressing mTAAR1
In the case of NCC(O)c1ccc(O)cc1 (stereo not drawn) [OCT, octopamine], the “Max (96)” value is reported as 100 percentage.

Same assay, conditions: read-out: EC50
Compound NCCc1ccc(O)c(O)c1 [Dopamine, dopamine] has an EC50 of 11.8 µM. In the case of NCCc1c[nH]cn1 [Histamine, histamine], the EC50 is reported as greater than 50 µM. With CNCCc1ccccc1 [N-methyl-β-PEA] the EC50 was 0.15 µM. With NC[C@H](O)c1ccc(O)c(O)c1 [Norepinephrine, norepinephrine] the EC50 was greater than 50 µM. NCC(O)c1ccc(O)cc1 (stereo not drawn) [OCT, octopamine] gave an EC50 of 19.7 µM.
